Assay results reported in PubChem BioAssay (NCI).
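A five-concentration, 48-hour dose response in 96-well plates underlies each endpoint, interpolated linearly between surrounding concentrations. GI50 marks 50% less growth. The concentration for full growth arrest is given as TGI.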

What was measured:
Assay in all cases: NCI tumour cell line growth inhibition, 48 h
SR leukemia = system: SR leukemia
HCC-2998 colon = system: HCC-2998 colon
MDA-MB-231 breast = system: MDA-MB-231 breast
SN12C renal = system: SN12C renal
KM12 colon = system: KM12 colon
SK-MEL-2 melanoma = system: SK-MEL-2 melanoma
NCI-H226 lung = system: NCI-H226 lung
MDA-N = system: MDA-N
CCRF-CEM leukemia = system: CCRF-CEM leukemia
RXF 393 renal = system: RXF 393 renal

Compound	TGI (SR leukemia) [µM]	TGI (HCC-2998 colon) [µM]	TGI (MDA-MB-231 breast) [µM]	TGI (SN12C renal) [µM]	TGI (KM12 colon) [µM]	TGI (SK-MEL-2 melanoma) [µM]	TGI (NCI-H226 lung) [µM]	TGI (MDA-N) [µM]	TGI (CCRF-CEM leukemia) [µM]	TGI (RXF 393 renal) [µM]	GI50 (HCC-2998 colon) [µM]	GI50 (MDA-MB-231 breast) [µM]	GI50 (KM12 colon) [µM]	GI50 (CCRF-CEM leukemia) [µM]	GI50 (SR leukemia) [µM]	GI50 (SN12C renal) [µM]	GI50 (SK-MEL-2 melanoma) [µM]	GI50 (NCI-H226 lung) [µM]	GI50 (RXF 393 renal) [µM]
CC(C)(C)COS(=O)OCC(C)(C)C	> 100	> 100	> 100	> 100	> 100	> 100	> 100	> 100	> 100	> 100									
COc1cc2cc[n+](C)c(Cc3ccc(Oc4cc(Cc5c6cc(OC)c(OC)cc6cc[n+]5C)ccc4OC)cc3)c2cc1OC	> 100	> 100	> 100	> 100	> 100	> 100	> 100	> 100	> 100	> 100									
CC(C)C(=O)CC(c1ccc(Br)cc1)N1N=C(C(C)C)CC1c1ccc(Br)cc1 (centres undefined)	> 100	> 100		> 100	> 100	> 100	> 100		> 100	> 100									
CC(CCCCNC(=O)OC(C)(C)C)NC(=O)NC(C)CCCCNC(=O)OC(C)(C)C (centres undefined)	> 100		> 100	> 100	> 100		> 100	> 100	> 100	> 100									
C[C@]12O[C@@]3(C)O[C@@]3(C)[C@]3(C)O[C@]3(C)[C@@]1(C)O2	> 100		> 100	> 100	> 100	> 100	> 100	> 100											
Cc1c2ccccc2cc2cccc[n+]12	> 100	> 100	> 100	> 100	53	> 100		> 100	> 100	> 100									
Cc1ccc(S(=O)(=O)Nc2cc(=O)[nH]c3c2CCC3)cc1	> 100	> 100	> 100	> 100	> 100	> 100	> 100	> 100	> 100	> 100									
C/C=C/C(O)P(=O)(OC)OC (centres undefined)	> 100	0.774	1.57	1.79	0.936	1	1.39	0.671	> 100	0.543									
c1ccc(C[N+]23C(CC[C@H]2c2ccccc2)CC[C@H]3c2ccccc2)cc1 (some centres undefined)	> 100		> 100	> 100	78	> 100	87.8	98.9	> 100	57.2									
Clc1cccc(/C=c2\nc(-c3ccccc3)n3c2nc2ccccc23)c1	> 100		> 100	> 100	> 100	> 100	> 100	> 100	> 100	> 100									
Nc1csc(-c2scc3c2OCCO3)c1N	> 100	49.8	41.4	37.4	56.5	40	42.9	38.8		56.1									
CCCC(=O)Nc1cc(/C=C/C(=O)N2CC(CCl)c3c2cc(OC(C)=O)c2[nH]cc(C)c32)n(C)c1 (centres undefined)	> 0.25		> 0.25	0.00519	0.00247	0.000121	0.000748		0.000161	< 2.5e-05									
C=CCc1cccc(/C(O)=C/C(=O)/C=C/c2ccccc2Cl)c1O	16	> 100	> 93.6	> 100	97	26.2	> 75.6	> 100	95.1	75.8									
CN(CCCN1CCCC1)CCCN(C)C(=O)Cc1ccc(Cl)c(Cl)c1	28.2	20.6	31.9	70.2	60.5	28.2	48	16	23.8	31.9									
CC1(C)CC(C(=O)OCCCCCCCCCCC[P+](c2ccccc2)(c2ccccc2)c2ccccc2)C(C)(C)N1O (centres undefined)		1.52	0.849		1.13				0.766		0.324	0.252	0.151	0.11					
NC(N)=N/N=C/c1c(-c2cccs2)nc2n1CCS2	34		33.4	32.4	29.2	> 100	31.8		34	> 100		13.7	14.2	17.2	17.6	12.5	43.3	15.9	77.7
CCOC(=O)c1cccc(N=Nc2ncc(/C=C/C(=O)OC)[nH]2)c1	> 100	43.8	> 100	48.5	82.2	> 100	> 100	> 100	> 100	> 100									
CCOC(=O)/C=C/C1=C(Br)[C@@]2(C)CC[C@@H]3c4ccc(O)cc4CC[C@H]3[C@@H]2C1	18.5	28.8		26.5	29.7	28.1	30.2	26.7	32.3	29.5									
CC12OC(C(=O)C13CCC3)C1C(=O)c3c(O)ccc(O)c3C(=O)C12 (centres undefined)	2.23		7.47	0.0729	10.5	> 100	> 100		> 100	3.3		2.41	2.91	0.38	0.29	0.0256	14.1	> 100	1.41
COc1cc(/C=C2\CC3C4CC[C@H]5C[C@@H](O)CC[C@]5(C)C4CC[C@]3(C)\C2=N\O)cc(OC)c1OC (some centres undefined)		38.6	59.7	41.9	56.7	31.7	45.1	41.9	> 100	36.8									
CCCCSCCC(N)P(=O)(O)O (centres undefined)	> 100	> 100	> 100	> 100		> 100	> 100	> 100	> 100										

Compound	TGI (SR leukemia) [µM]	TGI (HCC-2998 colon) [µM]	TGI (MDA-MB-231 breast) [µM]	TGI (SN12C renal) [µM]	TGI (KM12 colon) [µM]	TGI (SK-MEL-2 melanoma) [µM]	TGI (NCI-H226 lung) [µM]	TGI (MDA-N) [µM]	TGI (CCRF-CEM leukemia) [µM]	TGI (RXF 393 renal) [µM]	GI50 (HCC-2998 colon) [µM]	GI50 (MDA-MB-231 breast) [µM]	GI50 (KM12 colon) [µM]	GI50 (CCRF-CEM leukemia) [µM]	GI50 (SR leukemia) [µM]	GI50 (SN12C renal) [µM]	GI50 (SK-MEL-2 melanoma) [µM]	GI50 (NCI-H226 lung) [µM]	GI50 (RXF 393 renal) [µM]
OC1CCSc2ccccc21 (centres undefined)	> 100	> 100		> 100	> 100	> 100	> 100		> 100	> 100									
CS(=O)(=O)Nc1ccc(NCc2cnc3ccc4[nH]cccc4c23)cc1	47.7		97.4	88.8	36.7	32	> 100	37.5	58.5	41.9									
COc1ccc(-n2nc(C(=O)c3ccccc3)c3nn4c(=O)cc(-c5ccccc5)nc4nc32)cc1	> 100	76.7	> 100	> 100	> 100	> 100	> 100		> 100	> 100	47.3	28.7	46.5	28.9	24.9	41.7	45.8	98.1	> 100
Cc1cc(=O)[nH]c(S(=O)(=O)NC(=O)Nc2cccc(Cl)c2)n1	> 100	> 100	> 100	> 100	32.3	> 100	> 100	> 100	> 100	> 100									
CN(C)c1ccc(/C=C2\C[C@H]3[C@@H]4CC=C5C[C@@H](O)CC[C@]5(C)[C@H]4CC[C@]3(C)[C@H]2O)cc1	> 100		34.5	40	> 100	42.9	34.7	56.9		68									
CC(NC(=O)c1ccc(OP(=O)(OCc2ccc([N+](=O)[O-])o2)N(C)CCCCCl)cc1)c1ccc(OCC2CCCCC2)c(C(N)=O)c1 (centres undefined)	4.43	> 21.7	9.66	6.15	13.5	14.5	26.2	24	0.842	9.25									
O=S(C(c1ccccc1)=P(c1ccccc1)(c1ccccc1)c1ccccc1)c1ccc(Cl)cc1 (centres undefined)	> 100	> 100	70		57.2	45.9	> 100	78.6	> 100	95.1									
CN(CCCNC(=O)c1nn(-c2ccccc2)c2c1Cc1ccccc1-2)CCCNC(=O)c1nn(-c2ccccc2)c2c1Cc1ccccc1-2	1.42	2.77	2.99	3.2		2.69		2.66	2.42										
Oc1ccc(Cl)cc1C1=Nn2c(COc3ccc4c(c3)CCCC4)nnc2SC1			34.2	19.9	29.8	31.1		30.2	46.3	32.9									
C=C(CN(C)C)C(=O)c1ccccc1Cl	> 81.7	61		42.3	> 75	36.5	> 100		44.3	29.6									
C#C[C@]1(O)[C@@H](CO)O[C@@H](n2ccc(=O)[nH]c2=O)[C@@H]1O	> 100		3.77		> 100	3.32	2.66	1.71	> 100										
CCC1=C(CC2NCCc3cc(OC)c(OC)cc32)CC2c3ccccc3CCN2C1 (centres undefined)	24.1		74.4	> 100	> 100	29.2	73.6	27	33.6	> 100									
Cc1ccc([N+](=O)[O-])cc1S(=O)(=O)Nc1ccc(C2=NN(C(=O)c3ccccc3)C(c3ccccc3O)C2)cc1 (centres undefined)	> 100		37.7	33	> 100	46.4	58.6	88.1	> 100	31.9									
O=C1CNc2cc(N3CCCCC3)ccc2N1	> 100	> 100		> 100	> 100	> 100	37.3	> 100	> 100										
CN(CCc1ccccn1)c1ccc2c(c1)Cc1ccccc1-2		> 100	21.9	> 100	37.7		40.5		68.8	> 100									
O=C(/C=C/c1ccc(O)c(O)c1)O[C@H]1CCCC[C@@H]1OC(=O)/C=C/c1ccc(O)c(O)c1	> 100	33.7	> 100	50.1	73.3	84.3		26.5	61	27.6									
O=C(NN1CCCCC1)c1cc2cc(CCl)ccc2oc1=O	67.8	27.1	38.6	38.7	49.4	28.9	45.3	33.4	67.5	34.4									
COc1ccc2c3c([nH]c2c1)[C@H](C=C(C)C)N1C(=O)[C@@H]2CCCN2C(=O)[C@@H]1C3	> 100	> 100	> 100	> 100	> 100	> 100	> 100		> 100	> 100									
CS(=O)(=O)Nc1cccc(-c2ccc3ncnc(Nc4cncc(Cl)c4)c3c2)c1	5.47	5.27		> 100	> 100	7.35	8.23		> 100	4.41	2.4		2.92	3.09	1.67	2.63	2.64	2.21	1.43
COc1ccc(-n2nnc3c(C#N)c(C)c(-c4ccccc4)n3c2=O)cc1	> 100	> 33.2	> 79.1	> 63.7	> 100	> 100	> 100			> 21.4									
